Assay results taken from PMC6277767, “Broad and Region-Specific Impacts of the Synthetic Cannabinoid CP 55,940 in Adolescent and Adult Female Mouse Brains” (Frontiers in Molecular Neuroscience, 2018).

System: CD1 female mouse brain lipidome
Test: Brain-region lipid levels (HPLC/MS/MS lipidomics) 2 h after single i.p. 3 mg/kg CP 55,940 vs vehicle
Type: in vivo
Design: N-arachidonoyl phenylalanine level, Mean / N-stearoyl tryptophan level, Mean / N-stearoyl proline level, Mean / N-stearoyl leucine level, Mean / N-stearoyl phenylalanine level, Mean / N-stearoyl serine level, Mean / N-stearoyl methionine level, Mean: unit: moles per gram
Details: cerebellum
Method: The Bloomington Institutional Animal Care and Use Committee of Indiana University reviewed and approved the animal procedures. Female mice from the CD1 strain were utilized to match our study examining THC’s effects on the brain lipidome ([Leishman et al., 2018]). Mice were given a single i.p. injection of either 3 mg/kg CP or 1:1:18 cremophor:ethanol:saline vehicle (please refer to the section “3 mg/kg CP Is Relevant for Synthetic Cannabinoid Abuse and Has Stronger Effects on the Female Mouse Brain Lipidome During Adolescence” for a justification of dose and use of female mice). Three different age groups were given injections: PND 35 and PND 50 adolescents, and adult mice (PND 113). At least eight mice in each age group received CP and at least eight received vehicle. Matching the THC study time course ([Leishman et al., 2018]), mice were sacrificed via rapid decapitation 2 h after injection. Brains were immediately removed and flash-frozen in liquid nitrogen, and then stored at -80°C until dissections were performed. Brains were dissected on an ice-cold dissection plate into the following regions: STR, HIPP, CER, THAL, CTX, HYP, MID, and STEM. These abbreviations for these brain areas will be used exclusively when discussing the results generated by these specific dissections. Each dissected area was immediately placed in liquid nitrogen and then stored at -80°C until used for lipid extraction.
Tissue extracts were performed as previously described ([Bradshaw et al., 2006]; [Stuart et al., 2013]; [Raboune et al., 2014]; [Leishman et al., 2016a],[b], [2017], [2018]). First, samples were shock frozen in liquid nitrogen, weighed, and transferred to a centrifuge tube. The mass of the largest sample was multiplied by 50 to determine how many milliliters of HPLC-grade methanol (Fisher, Fair Lawn, NJ, United States) to add. Then, samples were spiked with 500 pmol deuterium-labeled NAGly (d8NAGly; Cayman Chemical, Ann Arbor, MI, United States). Samples were placed on ice in darkness for 2 h then individually homogenized and centrifuged at 19,000 × g for 20 min at 20°C. Supernatants were diluted with HPLC water (purified in house) to make a solution of 75% water, 25% supernatant. Lipids were partially purified on C18 solid phase extraction columns (Agilent, Palo Alto, CA, United States). A series of four elutions with 1.5 mL of 60%, 75%, 85%, and 100% methanol were collected ([Stuart et al., 2013]; [Leishman et al., 2016a],[b], [2018]).
As previously described ([Bradshaw et al., 2006]; [Tan et al., 2006]; [Smoum et al., 2010]; [Stuart et al., 2013]; [Tortoriello et al., 2013]; [Raboune et al., 2014]; [Leishman et al., 2016a],[b], [2017], [2018]), samples were analyzed using an Applied Biosystems API 3000 triple quadrupole mass spectrometer with electrospray ionization (Foster City, CA, United States). Using an Agilent XDB-C18 reversed phase analytical column and optimized mobile phase gradients, 20 μL from each elution were chromatographed. Two Shimadzu 10ADvp pumps (Columbia, MD, United States) provided the pressure for gradient elution. Mobile phase A: 20% methanol, 80% water (v/v) and 1 mM ammonium acetate (Sigma, St. Louis, MO, United States). Mobile phase B: 100% methanol, 1 mM ammonium acetate. Every method run began with 0% mobile phase B, reached 100% mobile phase B flowing at 0.2 mL/min, and gradually returned to 0% mobile phase B.
This screening library will be referred to as the lipidome when discussing data from this study. HPLC/MS/MS data were analyzed using Analyst software (Applied Biosystems) ([Bradshaw et al., 2006]; [Tan et al., 2006]; [Stuart et al., 2013]; [Tortoriello et al., 2013]; [Raboune et al., 2014]; [Leishman et al., 2016a],[b], [2017], [2018]). Chromatograms (Supplementary Figure 3) were generated by determining the retention time of analytes from the analytical column with a [M-1] or [M+1] parent peak and a fragmentation peak corresponding to the programmed values. […]

[1] = PND 50 female mice, 3 mg/kg CP 55,940
[2] = WT adult female mice, 3mg/kg CP 55,940

Structure (SMILES): CCCCCCC(C)(C)c1ccc([C@@H]2C[C@H](O)CC[C@H]2CCCO)c(O)c1 [CP 55,940]
- N-arachidonoyl phenylalanine level, Mean [1]: 2.55E-13
- N-arachidonoyl proline level, Mean [1]: BDL
- N-arachidonoyl serine level, Mean [1]: 4.25E-12
- N-arachidonoyl taurine level, Mean [1]: 1.97E-11
- N-arachidonoyl tryptophan level, Mean [1]: BDL
- N-arachidonoyl tyrosine level, Mean [1]: 2.66E-13
- N-docosahexaenoyl GABA level, Mean [1]: 9.21E-13
- N-docosahexaenoyl ethanolamine level, Mean [1]: 3.09E-11
- N-docosahexaenoyl glycine level, Mean [1]: 4.01E-13
- N-docosahexaenoyl leucine level, Mean [1]: 2.06E-13
- N-docosahexaenoyl phenylalanine level, Mean [1]: 2.68E-13
- N-docosahexaenoyl proline level, Mean [1]: BDL
- N-docosahexaenoyl serine level, Mean [1]: 8.95E-12
- N-docosahexaenoyl tryptophan level, Mean [1]: BDL
- N-docosahexaenoyl tyrosine level, Mean [1]: 6.76E-13
- N-linoleoyl GABA level, Mean [1]: 6.58E-13
- N-linoleoyl alanine level, Mean [1]: 7.79E-14
- N-linoleoyl ethanolamine level, Mean [1]: 3.74E-11
- N-linoleoyl glycine level, Mean [1]: 1.39E-13
- N-linoleoyl leucine level, Mean [1]: 5.12E-14
- N-linoleoyl proline level, Mean [1]: BDL
- N-linoleoyl serine level, Mean [1]: 5.53E-11
- N-linoleoyl tryptophan level, Mean [1]: BDL
- N-linoleoyl tyrosine level, Mean [1]: BDL
- N-nervonoyl valine level, Mean [1]: BDL
- N-oleoyl GABA level, Mean [1]: 2.42E-12
- N-oleoyl alanine level, Mean [1]: 9.8E-13
- N-oleoyl dopamine level, Mean [1]: BDL
- N-oleoyl ethanolamine level, Mean [1]: 6.07E-11
- N-oleoyl glycine level, Mean [1]: 1.13E-12
- N-oleoyl leucine level, Mean [1]: 5.63E-13
- N-oleoyl methionine level, Mean [1]: 2.55E-13
- N-oleoyl phenylalanine level, Mean [1]: 1.01E-12
- N-oleoyl proline level, Mean [1]: BDL
- N-oleoyl serine level, Mean [1]: 1.05E-10
- N-oleoyl tryptophan level, Mean [1]: BDL
- N-oleoyl tyrosine level, Mean [1]: 3.12E-13
- N-oleoyl valine level, Mean [1]: 4.78E-14
- N-palmitoyl GABA level, Mean [1]: 5.13E-12
- N-palmitoyl alanine level, Mean [1]: 2.64E-12
- N-palmitoyl ethanolamine level, Mean [1]: 5.07E-11
- N-palmitoyl glycine level, Mean [1]: 3.72E-12
- N-palmitoyl leucine level, Mean [1]: 1.13E-12
- N-palmitoyl methionine level, Mean [1]: 9.79E-13
- N-palmitoyl phenylalanine level, Mean [1]: 1.27E-12
- N-palmitoyl proline level, Mean [1]: BDL
- N-palmitoyl serine level, Mean [1]: 1.43E-11
- N-palmitoyl tryptophan level, Mean [1]: BDL
- N-palmitoyl tyrosine level, Mean [1]: 6.09E-13
- N-palmitoyl valine level, Mean [1]: 1.77E-13
- N-stearoyl GABA level, Mean [1]: 5.74E-12
- N-stearoyl alanine level, Mean [1]: 1.16E-12
- N-stearoyl ethanolamine level, Mean [1]: 2.6E-11
- N-stearoyl glycine level, Mean [1]: 5.05E-13
- N-stearoyl leucine level, Mean [1]: 8.15E-13
- N-stearoyl methionine level, Mean [1]: 4.91E-13
- N-stearoyl phenylalanine level, Mean [1]: 1.17E-12
- N-stearoyl proline level, Mean [1]: BDL
- N-stearoyl serine level, Mean [1]: 3.32E-11
- N-stearoyl tryptophan level, Mean [1]: BDL
- N-stearoyl tyrosine level, Mean [1]: 1.08E-13
- Oleic acid level, Mean [1]: 2.36E-10
- PGE2 level, Mean [1]: 5.14E-11
- THC level, Mean [1]: BDL
- 2-arachidonoyl glycerol level, Mean [2]: 4.32E-09
- 2-linoleoyl glycerol level, Mean [2]: 2.44E-10
- 2-oleoyl glycerol level, Mean [2]: 1.94E-09
- 2-palmitoyl glycerol level, Mean [2]: 1.01E-10
- 6-ketoPGF1α level, Mean [2]: 2.25E-11
- Arachidonic acid level, Mean [2]: 7.51E-10
- Linoleic acid level, Mean [2]: 6.75E-10
- N-arachidonoyl GABA level, Mean [2]: 1.22E-11
- N-arachidonoyl ethanolamine level, Mean [2]: 1.33E-11
- N-arachidonoyl glycine level, Mean [2]: 1.43E-13
- N-arachidonoyl phenylalanine level, Mean [2]: 4.52E-14
- N-arachidonoyl taurine level, Mean [2]: 6.54E-11
- N-docosahexaenoyl GABA level, Mean [2]: 8.3E-12
- N-docosahexaenoyl ethanolamine level, Mean [2]: 2.78E-11
- N-docosahexaenoyl glycine level, Mean [2]: 7.91E-14
- N-docosahexaenoyl leucine level, Mean [2]: 1.51E-12
- N-docosahexaenoyl phenylalanine level, Mean [2]: 3.04E-14
- N-linoleoyl GABA level, Mean [2]: 7.7E-12
- N-linoleoyl alanine level, Mean [2]: 2.18E-13
- N-linoleoyl ethanolamine level, Mean [2]: 1.87E-11
- N-linoleoyl glycine level, Mean [2]: 6.99E-14
- N-linoleoyl serine level, Mean [2]: 1.99E-11
- N-oleoyl GABA level, Mean [2]: 1.65E-11
- N-oleoyl alanine level, Mean [2]: 2.34E-12
- N-oleoyl ethanolamine level, Mean [2]: 2.04E-10
- N-oleoyl glycine level, Mean [2]: 2.49E-13
- N-oleoyl leucine level, Mean [2]: 1.06E-12
- N-oleoyl phenylalanine level, Mean [2]: 6.03E-13
- N-oleoyl serine level, Mean [2]: 1.05E-10
- N-oleoyl tyrosine level, Mean [2]: 8.96E-13
- N-oleoyl valine level, Mean [2]: 2.42E-14
- N-palmitoyl GABA level, Mean [2]: 2.25E-11
- N-palmitoyl alanine level, Mean [2]: 1.61E-12
- N-palmitoyl ethanolamine level, Mean [2]: 6.47E-11
- N-palmitoyl glycine level, Mean [2]: 1.24E-12
- N-palmitoyl leucine level, Mean [2]: 1.34E-12
- N-palmitoyl methionine level, Mean [2]: 6.89E-12
- N-palmitoyl phenylalanine level, Mean [2]: 1.87E-13
